“Also recorded” adds a separate entry of the source.
Columns and labels:
[1] = test system: breast cancer cells (E0771); assay: Verification of ASO prodrug in breast cancer cells E0771 (FIG. 18); type: cell-based, mouse
4T1 cells [2] = assay: 4T1 orthotopic breast cancer model, intratumoral ASO, tumor volume; type: in vivo, mouse; settings: mean, n=10
Source text: (§1) Based on the intratumoral experimental data of various mouse breast cancer models and melanoma models (administration started 7 days later, once every 3 days), this example studies the effect comparison between the ASO prodrug (ASO24, whose sequence is shown in SEQ ID No. 2) and PD-1/PD-L1, as well as the effect of their combination.
(§2) 1×10^5 E0771 cells were orthotopically injected into the fat pad of wild-type mice. Starting from day 7, PD-1 antibody (BioXCell #BE0033, clone J43, the same below) monotherapy, ASO monotherapy, or combined PD-1 antibody and ASO therapy was initiated. For anti-PD-1 antibody monotherapy, intraperitoneal injection was performed once a week at a dose of 3 mg/kg starting 7 days after tumor transplantation, and the control group was injected with DPBS. For MALT1 ASO monotherapy, in vivo-jetPEI®, in vivo DNA transfection kit was used according to the instructions. Intratumoral injection was performed twice a week at a dose of 5 nmol starting 7 days after tumor transplantation, and the control group was injected with solvent or nontarget ASO. Combined therapy will receive the two specified monotherapies. Tumor measurement was started after administration, once every three days. n=12. Data are expressed as mean. Statistical analysis was performed using Two way ANOVA. ** represents p <0.01.
2×10^5 4T1 cells were orthotopically injected into the fat pad of wild-type mice. Starting from day 7, PD-1 antibody monotherapy, ASO monotherapy, or combined PD-1 antibody and ASO therapy was initiated. n=10. Data are expressed as mean. Statistical analysis was performed using Two way ANOVA. n.s. represents no significant difference. ** represents p <0.01.

4T1 cells [3] = assay: 4T1 breast cancer model, systemic ASO24 (tail vein LNP-ASO), tumor volume; type: in vivo, mouse
Method: (§3) Study on the Effect Comparison between ASO Prodrug and PD-1/PD-L1 and Their Combined Use Based on Systemic Administration Experimental Data of Various Mouse Breast Cancer Models and Melanoma Models (Administration Started 7 Days Later, Once Every 3 Days).
(§4) The experimental process is similar to the intratumoral administration of ASO24 in E0771 cells, with the difference that ASO24 is administered via systemic delivery by tail vein injection of LNP-ASO in mice.

MALT1 = assay: Western blot of MALT1 expression in E0771 cells after ASO transfection with Lipofectamine 3000; type: cell-based, mouse; settings: ASO final concentration 50 nM, 5 μL Lipofectamine 3000, 48 hours after transfection, listed as D
Source text: S1. Considering the specificity between the antisense nucleic acid and the target nucleic acid and the hairpin-like structure that may be formed by the base complementarity within the nucleotide sequence of the antisense nucleic acid, the nucleotide sequence of the antisense nucleic acid needs to target the amino acid residues at positions 81 and/or 82 of the death domain (DD) of MALT1; S2. Considering the stability of hybridization and the membrane permeability of the antisense oligonucleotide, select the length of the antisense oligonucleotide, which ranges from 15 to 40 bases; S3. Considering the affinity of the antisense oligonucleotide for the target sequence, since the affinity of GC base pairs is greater than that between AU, increasing the ratio of GC base pairs to AU base pairs in the antisense oligonucleotide can appropriately reduce the length of the antisense oligonucleotide; S4. Set a control, which can be missense or reverse; S5. Use the designed antisense oligonucleotides to inhibit the expression of the same target sequence MALT-1 mRNA, and screen the antisense oligonucleotide with the best inhibitory effect. The specific steps for screening the antisense oligonucleotide with the best inhibitory effect are as follows: • a. […] 2×10^5 E0771 cells into each well of a 12-well plate and incubate overnight; • b. On the day after operation a, transfect the corresponding ASO drug with 5 μL of Lipofectamine™ 3000 until its final concentration is 50 nM; • c. 6 hours after operation b, replace the serum-free medium with medium containing 10% serum; • d. 24 hours after operation c, replace the serum-free medium again; • e. 48 hours after operation d, harvest the obtained protein and perform Western blot experiment. The Western blot results of antisense oligonucleotides targeting E0771 cells after transfection with Lipofectamine™ 3000 are shown in FIG. 5: in this figure, 48 hours after transfection with Lipofectamine™ 3000, 5 μL of Lipofectamine™ 3000 was added to each well of the 12-well plate.

E0771 cells = assay: E0771 breast cancer model, systemic ASO24 (tail vein LNP-ASO), tumor volume; type: in vivo, mouse
Method: as §2, §3, §4

PyMT-A cells = assay: PyMT-A orthotopic breast cancer model, intratumoral ASO, tumor volume; type: in vivo, mouse; settings: mean, n=10
Source text: as §1, §2
1×10^5 PyMT-A cells were orthotopically injected into the fat pad of wild-type mice. Starting from day 7, PD-1 antibody monotherapy, ASO monotherapy, or combined PD-1 antibody and ASO therapy was initiated. n=10. Data are expressed as mean. Statistical analysis was performed using Two way ANOVA. n.s. represents no significant difference. ** represents p <0.01.

B16F10 cells = assay: B16F10 subcutaneous melanoma model, intratumoral ASO, tumor volume; type: in vivo, mouse; settings: mean, n=10
Source text: as §1, §2
1×10^5 B16F10 cells were subcutaneously injected near the subcutaneous tissue of the groin of wild-type mice. Starting from day 7, PD-1 antibody monotherapy, ASO monotherapy, or combined PD-1 antibody and ASO therapy was initiated. n=10. Data are expressed as mean. Statistical analysis was performed using Two way ANOVA. ** represents p<0.01.

[4] = Day 7 (start of administration), ASO24 systemic by tail vein LNP-ASO
[5] = Day 9, ASO24 systemic by tail vein LNP-ASO, administration from day 7
[6] = Day 11, ASO24 systemic by tail vein LNP-ASO, administration from day 7
[7] = Day 13, ASO24 systemic by tail vein LNP-ASO, administration from day 7
[8] = Day 15, ASO24 systemic by tail vein LNP-ASO, administration from day 7
[9] = Day 17, ASO24 systemic by tail vein LNP-ASO, administration from day 7
[10] = Day 19, ASO24 systemic by tail vein LNP-ASO, administration from day 7

For “GAAGTTCATGAGCCTTGGCCC (antisense GAAGUUCAUGAGCCUUGGCCC; called an ASO prodrug, chemistry not given here) [ASO24]”, the “inhibition of further development of cancer cells” value [1] was “significantly inhibit the further development of cancer cells”, the Tumor volume (4T1 cells [2]; Day 0, 4T1 orthotopic fat pad, wild-type mice, treatment from day 7, ASO intratumoral) was 0 mm^3 and the Tumor volume (4T1 cells [2]; Day 7 (start of treatment), 4T1 orthotopic, ASO intratumoral) was 66 mm^3. It also gave a Tumor volume (4T1 cells [2]; Day 10, 4T1 orthotopic, treatment from day 7, ASO intratumoral) of 71 mm^3, a Tumor volume (4T1 cells [2]; Day 13, 4T1 orthotopic, treatment from day 7, ASO intratumoral) of 205 mm^3 and a Tumor volume (4T1 cells [2]; Day 16, 4T1 orthotopic, treatment from day 7, ASO intratumoral) of 377 mm^3. It also gave a Tumor volume (4T1 cells [2]; Day 19, 4T1 orthotopic, treatment from day 7, ASO intratumoral) of 876 mm^3, a Tumor volume (4T1 cells [3]; Day 0, ASO24 systemic by tail vein LNP-ASO, administration from day 7) of 0 mm^3 and a Tumor volume (4T1 cells [3]; [4]) of 44 mm^3. It also gave a Tumor volume (4T1 cells [3]; [5]) of 94 mm^3, a Tumor volume (4T1 cells [3]; [6]) of 103 mm^3 and a Tumor volume (4T1 cells [3]; [7]) of 136 mm^3. The Tumor volume (4T1 cells [3]; [8]) was 244 mm^3, the Tumor volume (4T1 cells [3]; [9]) was 333 mm^3 and the Tumor volume (4T1 cells [3]; [10]) was 510 mm^3. The “inhibition of MALT1 expression (Western blot band)” value (MALT1) was “obvious inhibitory results; also recorded: obvious inhibitory effects”, the Tumor volume (E0771 cells; Day 0, ASO24 systemic by tail vein injection of LNP-ASO, administration from day 7) was 0 mm^3 and the Tumor volume (E0771 cells; [4]) was 29 mm^3. It also gave a Tumor volume (E0771 cells; [5]) of 51 mm^3, a Tumor volume (E0771 cells; [6]) of 57 mm^3 and a Tumor volume (E0771 cells; [7]) of 86 mm^3. For the same sequence, the Tumor volume (E0771 cells; [8]) was 195 mm^3, the Tumor volume (E0771 cells; [9]) was 225 mm^3 and the Tumor volume (E0771 cells; [10]) was 313 mm^3. It also gave a Tumor volume (PyMT-A cells; Day 0, PyMT-A orthotopic fat pad, wild-type mice, treatment from day 7, ASO intratumoral) of 0 mm^3, a Tumor volume (PyMT-A cells; Day 7 (start of treatment), PyMT-A orthotopic, ASO intratumoral) of 13 mm^3 and a Tumor volume (PyMT-A cells; Day 10, PyMT-A orthotopic, treatment from day 7, ASO intratumoral) of 41 mm^3. For the same sequence, the Tumor volume (PyMT-A cells; Day 13, PyMT-A orthotopic, treatment from day 7, ASO intratumoral) was 142 mm^3, the Tumor volume (PyMT-A cells; Day 16, PyMT-A orthotopic, treatment from day 7, ASO intratumoral) was 245 mm^3 and the Tumor volume (PyMT-A cells; Day 19, PyMT-A orthotopic, treatment from day 7, ASO intratumoral) was 578 mm^3. For the same sequence, the Tumor volume (B16F10 cells; Day 0, B16F10 subcutaneous near groin, wild-type mice, treatment from day 7, ASO intratumoral) was 0 mm^3, the Tumor volume (B16F10 cells; Day 7 (start of treatment), B16F10 subcutaneous, ASO intratumoral) was 49 mm^3 and the Tumor volume (B16F10 cells; Day 10, B16F10 subcutaneous, treatment from day 7, ASO intratumoral) was 26 mm^3. It also gave a Tumor volume (B16F10 cells; Day 13, B16F10 subcutaneous, treatment from day 7, ASO intratumoral) of 129 mm^3 and a Tumor volume (B16F10 cells; Day 16, B16F10 subcutaneous, treatment from day 7, ASO intratumoral) of 311 mm^3.
